# Assay results from the NIST ThermoML archive (doi:10.1007/s10765-010-0766-0).
# “And” between values parts separate entries of the source, which are not always exact repeats. Identical values can stand only once. Numbers after ± are expanded uncertainties.
# Assay: molar heat capacity at constant volume
# Settings: Liquid, Vacuum adiabatic calorimetry
structure (smiles),measurement,setting,value
"FC(F)C(F)(F)OCC(F)(F)F [2,2,2-trifluoroethyl 1,1,2,2-tetrafluoroethyl ether]",molar heat capacity at constant volume,"279.15 K, 5663 kPa",189.85 ± 8.6 J/K/mol
same,molar heat capacity at constant volume,"280.15 K, 6663 kPa",187.85 ± 8.4 J/K/mol
same,molar heat capacity at constant volume,"280.15 K, 6673 kPa",191.45 ± 8.6 J/K/mol
same,molar heat capacity at constant volume,"281.15 K, 7673 kPa",194.25 ± 8.8 J/K/mol
same,molar heat capacity at constant volume,"281.15 K, 7685 kPa",189.25 ± 8.6 J/K/mol
same,molar heat capacity at constant volume,"282.15 K, 8685 kPa",190.65 ± 8.6 J/K/mol
same,molar heat capacity at constant volume,"282.15 K, 8696 kPa",193.65 ± 8.8 J/K/mol
same,molar heat capacity at constant volume,"283.15 K, 9695 kPa",191.85 ± 8.6 J/K/mol
same,molar heat capacity at constant volume,"283.15 K, 9705 kPa",192.45 ± 8.6 J/K/mol
same,molar heat capacity at constant volume,"284.15 K, 10704 kPa",193.45 ± 8.8 J/K/mol
same,molar heat capacity at constant volume,"284.15 K, 10712 kPa",191.85 ± 8.6 J/K/mol
same,molar heat capacity at constant volume,"285.15 K, 11710 kPa",191.65 ± 8.6 J/K/mol
same,molar heat capacity at constant volume,"285.15 K, 11717 kPa",193.65 ± 8.8 J/K/mol
same,molar heat capacity at constant volume,"286.15 K, 12714 kPa",193.85 ± 8.8 J/K/mol
same,molar heat capacity at constant volume,"286.15 K, 12720 kPa",191.65 ± 8.6 J/K/mol
same,molar heat capacity at constant volume,"287.15 K, 13718 kPa",193.05 ± 8.6 J/K/mol
same,molar heat capacity at constant volume,"287.15 K, 13722 kPa",194.65 ± 8.8 J/K/mol
same,molar heat capacity at constant volume,"288.15 K, 14719 kPa",192.25 ± 8.6 J/K/mol
same,molar heat capacity at constant volume,"288.15 K, 14722 kPa",193.05 ± 8.6 J/K/mol
same,molar heat capacity at constant volume,"289.15 K, 15719 kPa",193.65 ± 8.8 J/K/mol
same,molar heat capacity at constant volume,"289.15 K, 15720 kPa",193.25 ± 8.6 J/K/mol
same,molar heat capacity at constant volume,"290.15 K, 16716 kPa",193.45 ± 8.8 J/K/mol
same,molar heat capacity at constant volume,"290.15 K, 16717 kPa",195.85 ± 8.8 J/K/mol
same,molar heat capacity at constant volume,"291.15 K, 17711 kPa",193.65 ± 8.8 J/K/mol
same,molar heat capacity at constant volume,"291.15 K, 17712 kPa",194.45 ± 8.8 J/K/mol
same,molar heat capacity at constant volume,"292.15 K, 18703 kPa",193.05 ± 8.6 J/K/mol
same,molar heat capacity at constant volume,"292.15 K, 18704 kPa",193.05 ± 8.6 J/K/mol
same,molar heat capacity at constant volume,"293.15 K, 19694 kPa",193.45 ± 8.8 J/K/mol and 195.45 ± 8.8 J/K/mol
same,molar heat capacity at constant volume,"294.15 K, 20683 kPa",194.85 ± 8.8 J/K/mol and 193.25 ± 8.6 J/K/mol
same,molar heat capacity at constant volume,"295.15 K, 21669 kPa",192.45 ± 8.6 J/K/mol and 193.65 ± 8.8 J/K/mol
same,molar heat capacity at constant volume,"296.15 K, 22653 kPa",195.05 ± 8.8 J/K/mol
same,molar heat capacity at constant volume,"296.15 K, 22654 kPa",195.85 ± 8.8 J/K/mol
same,molar heat capacity at constant volume,"297.15 K, 23636 kPa",193.85 ± 8.8 J/K/mol and 194.45 ± 8.8 J/K/mol
same,molar heat capacity at constant volume,"298.15 K, 24616 kPa",193.85 ± 8.8 J/K/mol
same,molar heat capacity at constant volume,"298.15 K, 24617 kPa",193.85 ± 8.8 J/K/mol
same,molar heat capacity at constant volume,"299.15 K, 25595 kPa",195.45 ± 8.8 J/K/mol
same,molar heat capacity at constant volume,"299.15 K, 25596 kPa",196.45 ± 8.8 J/K/mol
same,molar heat capacity at constant volume,"300.15 K, 26572 kPa",194.05 ± 8.8 J/K/mol
same,molar heat capacity at constant volume,"300.15 K, 26573 kPa",193.85 ± 8.8 J/K/mol
same,molar heat capacity at constant volume,"301.15 K, 6294 kPa",197.05 ± 8.8 J/K/mol
same,molar heat capacity at constant volume,"301.15 K, 27548 kPa",196.25 ± 8.8 J/K/mol and 195.85 ± 8.8 J/K/mol
same,molar heat capacity at constant volume,"302.15 K, 7147 kPa",196.45 ± 8.8 J/K/mol
same,molar heat capacity at constant volume,"302.15 K, 28521 kPa",195.05 ± 8.8 J/K/mol
same,molar heat capacity at constant volume,"302.15 K, 28522 kPa",193.65 ± 8.8 J/K/mol
same,molar heat capacity at constant volume,"303.15 K, 8010 kPa",194.05 ± 8.8 J/K/mol
same,molar heat capacity at constant volume,"303.15 K, 8015 kPa",197.65 ± 8.8 J/K/mol
same,molar heat capacity at constant volume,"303.15 K, 29493 kPa",196.65 ± 8.8 J/K/mol and 196.85 ± 8.8 J/K/mol
same,molar heat capacity at constant volume,"304.15 K, 8873 kPa",195.25 ± 8.8 J/K/mol
same,molar heat capacity at constant volume,"304.15 K, 8874 kPa",194.45 ± 8.8 J/K/mol
same,molar heat capacity at constant volume,"305.15 K, 9734 kPa",197.65 ± 8.8 J/K/mol and 197.85 ± 9 J/K/mol
same,molar heat capacity at constant volume,"306.15 K, 10592 kPa",195.45 ± 8.8 J/K/mol
same,molar heat capacity at constant volume,"306.15 K, 10594 kPa",196.05 ± 8.8 J/K/mol
same,molar heat capacity at constant volume,"307.15 K, 11449 kPa",197.25 ± 8.8 J/K/mol
same,molar heat capacity at constant volume,"307.15 K, 11452 kPa",197.05 ± 8.8 J/K/mol
same,molar heat capacity at constant volume,"308.15 K, 12303 kPa",195.25 ± 8.8 J/K/mol
same,molar heat capacity at constant volume,"308.15 K, 12308 kPa",196.25 ± 8.8 J/K/mol
same,molar heat capacity at constant volume,"309.15 K, 13157 kPa",197.45 ± 8.8 J/K/mol
same,molar heat capacity at constant volume,"309.15 K, 13163 kPa",197.45 ± 8.8 J/K/mol
same,molar heat capacity at constant volume,"310.15 K, 14009 kPa",195.65 ± 8.8 J/K/mol
same,molar heat capacity at constant volume,"310.15 K, 14016 kPa",196.45 ± 8.8 J/K/mol
same,molar heat capacity at constant volume,"311.15 K, 14859 kPa",196.45 ± 8.8 J/K/mol
same,molar heat capacity at constant volume,"311.15 K, 14867 kPa",197.05 ± 8.8 J/K/mol
same,molar heat capacity at constant volume,"312.15 K, 15708 kPa",198.05 ± 9 J/K/mol
same,molar heat capacity at constant volume,"312.15 K, 15718 kPa",197.25 ± 8.8 J/K/mol
same,molar heat capacity at constant volume,"313.15 K, 16557 kPa",196.85 ± 8.8 J/K/mol
same,molar heat capacity at constant volume,"313.15 K, 16566 kPa",197.05 ± 8.8 J/K/mol
same,molar heat capacity at constant volume,"314.15 K, 17405 kPa",198.05 ± 9 J/K/mol
same,molar heat capacity at constant volume,"314.15 K, 17414 kPa",196.85 ± 8.8 J/K/mol
same,molar heat capacity at constant volume,"315.15 K, 18252 kPa",199.05 ± 9 J/K/mol
same,molar heat capacity at constant volume,"315.15 K, 18260 kPa",196.45 ± 8.8 J/K/mol
same,molar heat capacity at constant volume,"316.15 K, 19097 kPa",197.45 ± 8.8 J/K/mol
same,molar heat capacity at constant volume,"316.15 K, 19105 kPa",197.85 ± 9 J/K/mol
same,molar heat capacity at constant volume,"317.15 K, 19942 kPa",200.86 ± 9 J/K/mol
same,molar heat capacity at constant volume,"317.15 K, 19949 kPa",198.45 ± 9 J/K/mol
same,molar heat capacity at constant volume,"318.15 K, 20785 kPa",198.25 ± 9 J/K/mol
same,molar heat capacity at constant volume,"318.15 K, 20791 kPa",198.65 ± 9 J/K/mol
same,molar heat capacity at constant volume,"319.15 K, 21626 kPa",197.85 ± 9 J/K/mol
same,molar heat capacity at constant volume,"319.15 K, 21632 kPa",197.65 ± 8.8 J/K/mol
same,molar heat capacity at constant volume,"320.15 K, 22467 kPa",200.45 ± 9 J/K/mol
same,molar heat capacity at constant volume,"320.15 K, 22471 kPa",199.25 ± 9 J/K/mol
same,molar heat capacity at constant volume,"321.15 K, 23306 kPa",199.25 ± 9 J/K/mol
same,molar heat capacity at constant volume,"321.15 K, 23311 kPa",198.45 ± 9 J/K/mol
same,molar heat capacity at constant volume,"322.15 K, 24144 kPa",199.05 ± 9 J/K/mol
same,molar heat capacity at constant volume,"322.15 K, 24148 kPa",198.05 ± 9 J/K/mol
same,molar heat capacity at constant volume,"323.15 K, 24980 kPa",199.65 ± 9 J/K/mol
same,molar heat capacity at constant volume,"323.15 K, 24983 kPa",199.05 ± 9 J/K/mol
same,molar heat capacity at constant volume,"324.15 K, 25816 kPa",200.66 ± 9 J/K/mol
same,molar heat capacity at constant volume,"324.15 K, 25819 kPa",201.06 ± 9 J/K/mol
same,molar heat capacity at constant volume,"325.15 K, 26650 kPa",199.05 ± 9 J/K/mol
same,molar heat capacity at constant volume,"325.15 K, 26653 kPa",197.05 ± 8.8 J/K/mol
same,molar heat capacity at constant volume,"326.15 K, 27482 kPa",200.86 ± 9 J/K/mol
same,molar heat capacity at constant volume,"326.15 K, 27484 kPa",199.85 ± 9 J/K/mol
same,molar heat capacity at constant volume,"327.15 K, 28313 kPa",199.65 ± 9 J/K/mol
same,molar heat capacity at constant volume,"327.15 K, 28315 kPa",198.65 ± 9 J/K/mol
same,molar heat capacity at constant volume,"328.15 K, 29144 kPa",200.66 ± 9 J/K/mol
same,molar heat capacity at constant volume,"328.15 K, 29145 kPa",201.86 ± 9 J/K/mol
same,molar heat capacity at constant volume,"329.15 K, 7678 kPa",198.25 ± 9 J/K/mol
same,molar heat capacity at constant volume,"329.15 K, 7689 kPa",201.66 ± 9 J/K/mol
same,molar heat capacity at constant volume,"329.15 K, 29973 kPa",201.66 ± 9 J/K/mol
same,molar heat capacity at constant volume,"329.15 K, 29975 kPa",200.25 ± 9 J/K/mol
same,molar heat capacity at constant volume,"330.15 K, 8385 kPa",206.66 ± 9.4 J/K/mol
same,molar heat capacity at constant volume,"330.15 K, 8394 kPa",203.66 ± 9.2 J/K/mol
same,molar heat capacity at constant volume,"331.15 K, 9091 kPa",203.86 ± 9.2 J/K/mol
same,molar heat capacity at constant volume,"331.15 K, 9099 kPa",203.26 ± 9.2 J/K/mol
same,molar heat capacity at constant volume,"332.15 K, 9796 kPa",205.26 ± 9.2 J/K/mol
same,molar heat capacity at constant volume,"332.15 K, 9803 kPa",203.46 ± 9.2 J/K/mol
same,molar heat capacity at constant volume,"333.15 K, 10500 kPa",204.86 ± 9.2 J/K/mol
same,molar heat capacity at constant volume,"333.15 K, 10506 kPa",204.26 ± 9.2 J/K/mol
same,molar heat capacity at constant volume,"334.15 K, 11204 kPa",205.86 ± 9.2 J/K/mol
same,molar heat capacity at constant volume,"334.15 K, 11209 kPa",204.66 ± 9.2 J/K/mol
same,molar heat capacity at constant volume,"335.15 K, 11908 kPa",206.26 ± 9.2 J/K/mol
same,molar heat capacity at constant volume,"335.15 K, 11912 kPa",205.06 ± 9.2 J/K/mol
same,molar heat capacity at constant volume,"336.15 K, 12610 kPa",205.26 ± 9.2 J/K/mol
same,molar heat capacity at constant volume,"336.15 K, 12614 kPa",204.26 ± 9.2 J/K/mol
same,molar heat capacity at constant volume,"337.15 K, 13313 kPa",208.46 ± 9.4 J/K/mol
same,molar heat capacity at constant volume,"337.15 K, 13315 kPa",206.66 ± 9.4 J/K/mol
same,molar heat capacity at constant volume,"338.15 K, 14014 kPa",204.26 ± 9.2 J/K/mol
same,molar heat capacity at constant volume,"338.15 K, 14016 kPa",204.66 ± 9.2 J/K/mol
same,molar heat capacity at constant volume,"339.15 K, 14714 kPa",208.46 ± 9.4 J/K/mol
same,molar heat capacity at constant volume,"339.15 K, 14716 kPa",206.06 ± 9.2 J/K/mol
same,molar heat capacity at constant volume,"340.15 K, 15413 kPa",207.06 ± 9.4 J/K/mol
same,molar heat capacity at constant volume,"340.15 K, 15416 kPa",206.86 ± 9.4 J/K/mol
same,molar heat capacity at constant volume,"341.15 K, 16111 kPa",207.06 ± 9.4 J/K/mol
same,molar heat capacity at constant volume,"341.15 K, 16114 kPa",208.06 ± 9.4 J/K/mol
